Patent US12274830B2, “Nitric oxide inhalation therapy for infants with bronchiolitis” (BEYOND AIR LTD, priority 2015, dated 2025)
Entries after “also recorded” stand apart in the source; their conditions may differ.

What was measured:
S. aureus (ATCC 25923) = conditions: 200 ppm gNO; cited from earlier work
[1] = system: P. aeruginosa (ATCC 27853); conditions: 200 ppm gNO; cited from earlier work
[2] = previous in vitro and animal studies; cited from earlier work
S. aureus (Clinical) = conditions: 200 ppm gNO; cited from earlier work
Group B Streptococci = conditions: 200 ppm gNO; cited from earlier work
Klebsiella sp. #1 = conditions: 200 ppm gNO; cited from earlier work
[3] = system: infants with acute bronchiolitis; test: Safety and tolerability of intermittent inhalations of 160 ppm NO in hospitalized infants with acute bronchiolitis (randomized double blind study); assay type: in vivo, human
Protocol: The study was conducted at the Soroka University Medical Center in southern Israel, and was approved by the Institutional and National Human Ethics Committee. A detailed study overview is attached as an online supplement. This study is registered with clinical trial number NCT01768884.
The study was a randomized, prospective, single center, double blind study of 2-11 month old hospitalized infants with acute bronchiolitis (FIG. 1).
Subjects were screened within 4 hours of admission and randomized (1:1) to receive intermittent inhalations of 160 ppm NO along with standard treatment (NO group) or intermittent inhalations of 02/air mixture and standard treatment (control group), for a maximum of 25 inhalations.
Standard Supportive Treatment: This treatment included humidified oxygen, nasal suction when needed and hydration (oral, intra-venous or nasogastric tube fluids). The use of other concomitant medications was allowed, according to the ward's common practice.
Nitric Oxide Treatment: Subjects spontaneously inspired 160 ppm NO in fixed flow mode via a facemask. Nitric Oxide (Maxima, Israel) of 800 ppm (0.08%) NO balanced with 99.999% purity Nitrogen (N2), was titrated into the O2/air inspiratory delivery line. Inhaled NO, NO2 and O2 concentrations in the patient breathing circuit were continuously monitored using dedicated gas analyzers. (AeroNox, International medical, USA).
Primary Outcome: Safety measures, included % MetHb and NO2 production associated with NO treatment, bleeding episodes and any other adverse event (AE). Study threshold for NO2 and MetHb was set at 5 ppm and 5%, respectively.
The primary outcome was safety and tolerability of intermittent inhalations of 160 ppm NO, given to infants 2 to 11 months with acute bronchiolitis. Safety measures included % MetHb associated with NO treatment (safety threshold was determined as >5% for MetHb and >5 ppm for NO2), as well as any other AEs. Tolerability measures included the proportions of subjects who prematurely discontinued the study for any reason, and the proportion of subjects who prematurely discontinued the treatment due to severe SAEs.
The research staff was divided into “blinded” and “unblinded” groups. The unblinded staff administered the inhalations to the infants and monitored % MetHb, % SpO2 (co-oximeter, RAD57/RAD 87, Masimo Corporation, USA), fractional inhaled O2 (FiO2), NO, NO2 levels. The blinded group included the primary investigator and all other staff directly involved with patient care. Safety threshold for NO2 and MetHb was set at 5 ppm and 5%, respectively. It should be emphasized that both treatments, NO/O2 (NO treatment) as well as O2/air mixture (control) were given via the same device, therefore, parents were also blinded to the treatment arm.
Each patient was given 5 inhalations a day of NO (treatment group) or oxygen (control group), along with the standard supportive treatment, for a maximum of 25 inhalations (based on phase I safety data). Each participant was examined and evaluated using the severity symptom score by a blinded pediatricians every […] (9 am and 3 pm). When the room-air SpO2 reached 92%, and the score was ≤5, and the patient was assessed as “ready for discharge”, the treatment was discontinued.
The data were managed and analyzed by independent statisticians group using the SAS version 9.1 (SAS Institute, Cary, North Carolina). […]

[4] = system: bacteria at 10E5 CFU/ml isolated from patients; conditions: 200 ppm gNO, cited from earlier work
[5] = system: influenza virions or infected cell (MDCK); conditions: intermittent (30 minutes every 4 hours) 160 ppm exogenous gaseous NO; MDCK cell model; cited from earlier work
Enterobacter sp. = conditions: 200 ppm gNO; cited from earlier work
Klebsiella sp. #3 = conditions: 200 ppm gNO; cited from earlier work
Acinetobacter sp. = conditions: 200 ppm gNO; cited from earlier work
healthy individuals = conditions: 160 ppm NO for 30 minutes, 5 times daily, 5 consecutive days; cited from earlier work
S. maltophilia = conditions: 200 ppm gNO; cited from earlier work
[6] = NO Group (N = 21), Methemoglobin >5%
[7] = NO Group (N = 21), NO2 concentration >5 ppm
[8] = NO Group (N = 21), Oxyhemoglobin <89%
[9] = average of the 13 bacteria above the line

With `[N]=O` [NO, nitric oxide] as the molecule, how does the “+2.5 Log10” value (S. aureus (ATCC 25923)) read?
The value was 3.3 hours.

What about the LD100 (S. aureus (ATCC 25923)) of the same molecule?
Its LD100 is 4 h.

What about the “Latent Period” value (S. aureus (ATCC 25923)) of the same molecule?
The value was 3 h.

And the “+2.5 Log10” value [1]?
The value was 2.1 hours.

What about the LD100 [1] of the same molecule?
Its LD100 is 3 h.

What about the “Latent Period” value [1] of the same molecule?
The value was 1 h.

What about the “NO exposure needed before an anti-microbial effect was seen” value [2] of the same molecule?
Its value is “at least 2.5 hours”.

What about the “+2.5 Log10” value (S. aureus (Clinical)) of the same molecule?
The value was 3.7 hours.

What about the LD100 (S. aureus (Clinical)) of the same molecule?
The LD100 was 4 h.

And the “Latent Period” value (S. aureus (Clinical))?
The value was 3 h.

What about the “+2.5 Log10” value (Group B Streptococci) of the same molecule?
Its value is 1.5 hours.

And the LD100 (Group B Streptococci)?
Its LD100 is 2 h.

What about the “Latent Period” value (Group B Streptococci) of the same molecule?
Its value is 1 h.

What about the “+2.5 Log10” value (Klebsiella sp. #1) of the same molecule?
Its value is 3.5 hours.

And the LD100 (Klebsiella sp. #1)?
Its LD100 is 6 h.

What about the “Latent Period” value (Klebsiella sp. #1) of the same molecule?
Its value is 3 h.

What about the “Bleeding episodes or deaths during the study” value ([3]; 160 ppm NO intermittent inhalation) of the same molecule?
The value was “no bleeding episodes or deaths; also recorded: no bleeding episodes”.

And the “NO2 elevations and clinical evidence of toxicity” value ([3]; 30 minutes of inhaled 160 ppm NO five time a day)?
Its value is “neither associated with significant elevations in NO2 nor clinical evidence of toxicity; also recorded: no events of significant NO2 elevations”.

And the “Safety and tolerability versus control (standard supportive treatment)” value ([3]; ITT, PP)?
Its value is “no statistically significant safety and tolerability differences; also recorded: comparable to those in the standard-supportive treatment”.

What about the “Any AE, events (E)” value ([3]; NO Group (N = 21)) of the same molecule?
The value was 22 E.

And the “Any serious AE, events (E)” value ([3]; NO Group (N = 21))?
The value was 4 E.

And the “Any serious AE, subjects n (%)” value ([3]; NO Group (N = 21))?
The value was 4 (19.0%) n (%).

And the “Any serious treatment-related AE, events (E)” value ([3]; NO Group (N = 21))?
The value was 0 E.

What about the “Any severe AE, events (E)” value ([3]; NO Group (N = 21)) of the same molecule?
The value was 1 E.

What about the “Any severe AE, subjects n (%)” value ([3]; NO Group (N = 21)) of the same molecule?
The value was 1 (4.8%) n (%).

What about the “Any treatment-related AE, events” value ([3]; NO Group (N = 21)) of the same molecule?
The value was 6 E.

What about the “Death, events (E)” value ([3]; NO Group (N = 21)) of the same molecule?
Its value is 0 E.

What about the “Death, subjects n (%)” value ([3]; NO Group (N = 21)) of the same molecule?
The value was 0 (0.0%) n (%).

What about the “Treatment withdrawal due to AE, events (E)” value ([3]; NO Group (N = 21)) of the same molecule?
Its value is 1 E.

And the “Treatment withdrawal due to AE, subjects n (%)” value ([3]; NO Group (N = 21))?
Its value is 1 (4.8%) n (%).

What about the “Treatment-related AE: Blood and Lymphatic System Disorders, Events” value ([3]; NO Group (N = 21)) of the same molecule?
Its value is 5 Events.

What about the “Treatment-related AE: Investigations, Events” value ([3]; NO Group (N = 21)) of the same molecule?
The value was 1 Events.

And the “Treatment-related AE: Blood and Lymphatic System Disorders, subjects n (%)” value ([3]; NO Group (N = 21), MedDRA SOC)?
The value was 4 (19.0%) n (%).

And the “Treatment-related AE: Investigations, subjects n (%)” value ([3]; NO Group (N = 21), MedDRA SOC)?
Its value is 1 (4.8%) n (%).

And the “Treatment-related AE: Methaemoglobinaemia, Events” value [3, 6]?
The value was 5 Events.

And the “Treatment-related AE: Methaemoglobinaemia, subjects n (%)” value [3, 6]?
The value was 4 (19.0%) n (%).

And the “Treatment-related AE: NO2 increase, Events” value [3, 7]?
Its value is 1 Events.

What about the “Treatment-related AE: NO2 increase, subjects n (%)” value [3, 7] of the same molecule?
Its value is 1 (4.8%) n (%).

And the “Treatment-related AE: Oxyemoglobin decreased, Events” value [3, 8]?
Its value is 1 Events.

And the “Treatment-related AE: Oxyemoglobin decreased, subjects n (%)” value [3, 8]?
The value was 1 (4.8%) n (%).

And the “Any AE, subjects n (%)” value ([3]; NO Group (N = 21), intermittent 160 ppm NO + standard treatment)?
Its value is 10 (47.6%) n (%).

What about the “Any treatment-related AE, subjects n (%)” value ([3]; NO Group (N = 21), possibly or probably related to study treatment) of the same molecule?
The value was 5 (23.8%) n (%).

What about the “Subjects in whom MetHb values >5% were observed more than once” value ([3]; NO group) of the same molecule?
Its value is 3 subjects.

And the “Subjects with MetHb measurement >5% during the study treatment period, n (%)” value ([3]; NO group)?
The value was 6 (28.5%) n (%).

And the “MetHb peak value at end of inhalation (mean)” value ([3]; NO group, each NO inhalation)?
The value was 3.3±0.9%.

What about the “Maximum MetHb value” ([3]; NO group, in two subjects) of the same molecule?
The value was 5.6%.

What about the “Subjects who discontinued the study/study treatment, n (%)” value ([3]; NO group, tolerability) of the same molecule?
Its value is 2 (9.5%) n (%).

And the “SpMet level of infants undergoing the method” value ([3]; general statement referring to the Examples)?
The value was at most 1%.

What about the “Cumulative effect / accumulation of MetHb over the treatment period” value ([3]; pre- vs end of inhalation MetHb levels) of the same molecule?
Its value is “no cumulative effect; also recorded: no accumulation of MetHb”.

What about the “Reduction in CFU/ml for each gNO-exposed organism” value ([4]; 10E5 CFU/ml) of the same molecule?
Its value is 4-6 Log10 units.

And the “+2.5 Log10, Average” value [4, 9]?
The value was 3.82 hours.

And the “LD100, Average” value [4, 9]?
The value was 4.77 h.

What about the “Latent Period, Average” value [4, 9] of the same molecule?
The value was 2.77 h.

And the “Effect on influenza viral replication and infectivity” value [5]?
Its value is “reduced not just viral replication, but also its infectivity”.

What about the “+2.5 Log10” value (Enterobacter sp.) of the same molecule?
Its value is 5.3 hours.

What about the LD100 (Enterobacter sp.) of the same molecule?
Its LD100 is 6 h.

And the “Latent Period” value (Enterobacter sp.)?
The value was 4 h.

What about the “+2.5 Log10” value (Klebsiella sp. #3) of the same molecule?
Its value is 5.1 hours.

And the LD100 (Klebsiella sp. #3)?
The LD100 was 6 h.

What about the “Latent Period” value (Klebsiella sp. #3) of the same molecule?
The value was 3 h.

And the “+2.5 Log10” value (Acinetobacter sp.)?
Its value is 5 hours.

And the LD100 (Acinetobacter sp.)?
The LD100 was 6 h.

What about the “Latent Period” value (Acinetobacter sp.) of the same molecule?
The value was 4 h.

What about the “Safety and tolerability in healthy individuals” value (healthy individuals) of the same molecule?
Its value is “safe and well tolerated”.

What about the “+2.5 Log10” value (S. maltophilia) of the same molecule?
Its value is 2.8 hours.

And the LD100 (S. maltophilia)?
The LD100 was 4 h.

And the “Latent Period” value (S. maltophilia)?
The value was 2 h.
